In patent US20210382058A1, “PATIENT SELECTION FOR TREATMENT OF MYC POSITIVE CANCERS WITH INDENOISOQUINOLINES” (Purdue Research Foundation, priority 2020, published 2021):
Read-outs that look alike come from different tables or passages of the source.

Columns and labels:
NCI-60 cancer cell lines = assay: NCI-60 cancer cell line drug screen (GI50, MGM); type: cell-based, human; settings: for GI50: read-out: Antiproliferative Activities [GI50 (μM)]
Experimental: Cancer cells were incubated with the test compounds at five concentrations ranging from 100 μM to 10 nM for 48 h. […] The approximate average of GI50 values across the entire panel of NCI-60 cancer cell lines for each compound was recorded as the MGM value.

[1] = tested on: MYC protein expression in MCF-7 breast cancer cells; assay: Western blotting of MYC protein level in MCF-7 cells; type: cell-based, human; settings: MCF-7, 0.5, 1, 2, and 4 μM, 24 h
Procedure, shortened: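 MCF-7 cells were exposed to compounds at 0.5, 1, 2 and 4 μM for 24 hours at 37° C. MYC was detected by immunoblot with ECL, using rabbit anti-MYC (1:1000) and anti-GAPDH (1:2000) as loading control.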

## COc1cnc2c(c1)C(=O)c1c-2n(CCCNC2=NCCS2)c(=O)c2cc([N+](=O)[O-])ccc12 [Compound 12]
NCI-60 cancer cell lines; Homo sapiens, 786-0, Renal Cancer, 786-0
  GI50: 0.02 µM
NCI-60 cancer cell lines; Homo sapiens, A549, Non-Small Cell Lung Cancer, A549/ATCC
  GI50: 0.04 µM
NCI-60 cancer cell lines; Homo sapiens, ACHN, Renal Cancer, ACHN
  GI50: < 0.01 µM
NCI-60 cancer cell lines; Homo sapiens, BT-549, Breast Cancer, BT-549
  GI50: 0.05 µM
NCI-60 cancer cell lines; Homo sapiens, CAKI-1, Renal Cancer, CAKI-1
  GI50: < 0.01 µM
NCI-60 cancer cell lines; Homo sapiens, CCRF-CEM, Leukemia, CCRF-CEM
  GI50: < 0.01 µM
NCI-60 cancer cell lines; Homo sapiens, COLO 205, Colon Cancer, COLO 205
  GI50: 0.24 µM
NCI-60 cancer cell lines; Homo sapiens, DU-145, Prostate Cancer, DU-145
  GI50: < 0.01 µM
NCI-60 cancer cell lines; Homo sapiens, EKVX, Non-Small Cell Lung Cancer, EKVX
  GI50: 1.01 µM
NCI-60 cancer cell lines; Homo sapiens, HCC 2998, Colon Cancer, HCC-2998
  GI50: 1.03 µM
NCI-60 cancer cell lines; Homo sapiens, HCT-15, Colon Cancer, HCT-15
  GI50: 1.17 µM
NCI-60 cancer cell lines; Homo sapiens, HL-60, Leukemia, HL-60(TB)
  GI50: < 0.01 µM
NCI-60 cancer cell lines; Homo sapiens, HOP-62, Non-Small Cell Lung Cancer, HOP-62
  GI50: 0.01 µM
NCI-60 cancer cell lines; Homo sapiens, HOP-92, Non-Small Cell Lung Cancer, HOP-92
  GI50: 1.38 µM
NCI-60 cancer cell lines; Homo sapiens, HT-29, Colon Cancer, HT29
  GI50: 0.03 µM
NCI-60 cancer cell lines; Homo sapiens, Hs-578T, Breast Cancer, HS 578T
  GI50: 1.82 µM
NCI-60 cancer cell lines; Homo sapiens, IGROV-1, Ovarian Cancer, IGROV1
  GI50: 0.08 µM
NCI-60 cancer cell lines; Homo sapiens, K562, Leukemia, K-562
  GI50: 0.11 µM
NCI-60 cancer cell lines; Homo sapiens, KM12, Colon Cancer, KM12
  GI50: 1.11 µM
NCI-60 cancer cell lines; Homo sapiens, LOX IMVI, Melanoma, LOX IMVI
  GI50: < 0.01 µM
NCI-60 cancer cell lines; Homo sapiens, Leukemia, SR
  GI50: < 0.01 µM
NCI-60 cancer cell lines; Homo sapiens, MCF7, Breast Cancer, MCF7
  GI50: < 0.01 µM
NCI-60 cancer cell lines; Homo sapiens, MDA-MB-231, Breast Cancer, MDA-MB-231/ATCC
  GI50: 1.61 µM
NCI-60 cancer cell lines; Homo sapiens, MDA-MB-435, Melanoma, MDA-MB-435
  GI50: 0.48 µM
NCI-60 cancer cell lines; Homo sapiens, MDA-MB-468, Breast Cancer, MDA-MB-468
  GI50: 0.03 µM
NCI-60 cancer cell lines; Homo sapiens, MOLT-4, Leukemia, MOLT-4
  GI50: < 0.01 µM
NCI-60 cancer cell lines; Homo sapiens, Malme-3M, Melanoma, MALME-3M
  GI50: 0.62 µM
NCI-60 cancer cell lines; Homo sapiens, Melanoma, M14
  GI50: < 0.01 µM
NCI-60 cancer cell lines; Homo sapiens, NCI-H23, Non-Small Cell Lung Cancer, NCI-H23
  GI50: 0.02 µM
NCI-60 cancer cell lines; Homo sapiens, NCI-H226, Non-Small Cell Lung Cancer, NCI-H226
  GI50: 0.04 µM
NCI-60 cancer cell lines; Homo sapiens, NCI-H322M, Non-Small Cell Lung Cancer, NCI-H322M
  GI50: 0.04 µM
NCI-60 cancer cell lines; Homo sapiens, NCI-H460, Non-Small Cell Lung Cancer, NCI-H460
  GI50: < 0.01 µM
NCI-60 cancer cell lines; Homo sapiens, NCI-H522, Non-Small Cell Lung Cancer, NCI-H522
  GI50: < 0.01 µM
NCI-60 cancer cell lines; Homo sapiens, OVCAR-3, Ovarian Cancer, OVCAR-3
  GI50: 0.14 µM
NCI-60 cancer cell lines; Homo sapiens, OVCAR-4, Ovarian Cancer, OVCAR-4
  GI50: 0.48 µM
NCI-60 cancer cell lines; Homo sapiens, OVCAR-5, Ovarian Cancer, OVCAR-5
  GI50: 1.04 µM
NCI-60 cancer cell lines; Homo sapiens, OVCAR-8, Ovarian Cancer, OVCAR-8
  GI50: 0.02 µM
NCI-60 cancer cell lines; Homo sapiens, Ovarian Cancer, NCl/ADR-RES
  GI50: 0.02 µM
NCI-60 cancer cell lines; Homo sapiens, Prostate Cancer, PC-3
  GI50: 1.28 µM
NCI-60 cancer cell lines; Homo sapiens, RPMI-8226, Leukemia, RPMI-8226
  GI50: 0.03 µM
NCI-60 cancer cell lines; Homo sapiens, RXF 393, Renal Cancer, RXF 393
  GI50: 0.03 µM
NCI-60 cancer cell lines; Homo sapiens, Renal Cancer, U0-31
  GI50: < 0.01 µM
NCI-60 cancer cell lines; Homo sapiens, SF-268, CNS Cancer, SF-268
  GI50: < 0.01 µM
NCI-60 cancer cell lines; Homo sapiens, SF-295, CNS Cancer, SF-295
  GI50: 0.01 µM
NCI-60 cancer cell lines; Homo sapiens, SF-539, CNS Cancer, SF-539
  GI50: 0.04 µM
NCI-60 cancer cell lines; Homo sapiens, SK-MEL-2, Melanoma, SK-MEL-2
  GI50: 1.56 µM
NCI-60 cancer cell lines; Homo sapiens, SK-MEL-5, Melanoma, SK-MEL-5
  GI50: 0.03 µM
NCI-60 cancer cell lines; Homo sapiens, SK-MEL-28, Melanoma, SK-MEL-28
  GI50: 1.18 µM
NCI-60 cancer cell lines; Homo sapiens, SK-OV-3, Ovarian Cancer, SK-OV-3
  GI50: 0.01 µM
NCI-60 cancer cell lines; Homo sapiens, SN12C, Renal Cancer, SN12C
  GI50: < 0.01 µM
NCI-60 cancer cell lines; Homo sapiens, SNB-19, CNS Cancer, SNB-19
  GI50: 0.01 µM
NCI-60 cancer cell lines; Homo sapiens, SNB-75, CNS Cancer, SNB-75
  GI50: 0.03 µM
NCI-60 cancer cell lines; Homo sapiens, SW-620, Colon Cancer, SW-620
  GI50: 0.01 µM
NCI-60 cancer cell lines; Homo sapiens, T47D, Breast Cancer, T-47D
  GI50: < 0.01 µM
NCI-60 cancer cell lines; Homo sapiens, TK-10, Renal Cancer, TK-10
  GI50: 1.34 µM
NCI-60 cancer cell lines; Homo sapiens, U-251, CNS Cancer, U251
  GI50: < 0.01 µM
NCI-60 cancer cell lines; Homo sapiens, UACC-62, Melanoma, UACC-62
  GI50: < 0.01 µM
NCI-60 cancer cell lines; Homo sapiens, UACC-257, Melanoma, UACC-257
  GI50: 0.58 µM
NCI-60 cancer cell lines; Homo sapiens, average of GI50 values across the entire panel of NCI-60 cancer cell lines
  mean GI50 across NCI-60 panel (MGM): 55 nM
NCI-60 cancer cell lines; NCI-60 panel
  anticancer activity (GI50 profile) in words: more potent anticancer activities compared to compounds 4 and 20
[1]
  MYC-inhibitory effect (MYC protein, western blot): clear MYC-inhibitory effect
